Test results as given in patent US20120129875A1, “SUBSTITUTED QUINAZOLINES AS FUNGICIDES” (SYNGENTA CROP PROTECTION, LLC, priority 2009, published 2012).

Legend:
Format in all cases: in vivo
Plasmopara viticola = Plasmopara viticola / grape / preventative (grape downy mildew); conditions: grape seedlings cv. Gutedel, inoculated one day after application, vs untreated control, read-out: disease control
Method: Plasmopara viticola/Grape/Preventative (Grape Downy Mildew)
5-week old grape seedlings cv. Gutedel are treated with the formulated test compound in a spray chamber. The test plants are inoculated by spraying a sporangia suspension on their lower leaf surface one day after application. The inoculated test plants are incubated at 22° C. and 100% rh in a greenhouse and the percentage leaf area covered by disease is assessed when an appropriate level of disease appears on untreated check plants (6-8 days after application).

Alternaria solani = Alternaria solani / tomato / preventative (Alternaria on tomato); conditions: tomato plants cv. Roter Gnom, inoculated two days after application, vs untreated control, read-out: disease control
Method: (§1) Alternaria solani/Tomato/Preventative (Alternaria on Tomato) 4-week old tomato plants cv. Roter Gnom are treated with the formulated test compound in a spray chamber. The test plants are inoculated by spraying them with a spore suspension two days after application. The inoculated test plants are incubated at 22/18° C. (day/night) and 95% rh in a greenhouse and the percentage leaf area covered by disease is assessed when an appropriate level of disease appears on untreated check plants (5-7 days after application).

[1] = system: Pyrenophora teres (Helminthosporium teres); test: Pyrenophora teres (Helminthosporium teres) / barley / preventative (net blotch on barley); conditions: barley plants cv. Regina, inoculated 2 days after application, vs untreated control, read-out: disease control
Method: Pyrenophora teres (Helminthosporium teres)/Barley/Preventative (Net Blotch on Barley) 1-week old barley plants cv. Regina are treated with the formulated test compound in a spray chamber. The test plants are inoculated by spraying them with a spore suspension 2 days after application. The inoculated test plants are incubated at 20° C. and 95% rh and the percentage leaf area covered by disease is assessed when an appropriate level of disease appears on untreated check plants (5-7 days after application).

[2] = system: Botryotinia fuckeliana (Botrytis cinerea); test: Botryotinia fuckeliana (Botrytis cinerea) / tomato / preventative (Botrytis on tomato); conditions: tomato plants cv. Roter Gnom, inoculated two days after application, vs untreated control, read-out: disease control
Method: as §1, with “Botryotinia fuckeliana (Botrytis cinerea)/Tomato/Preventative (Botrytis” for “Alternaria solani/Tomato/Preventative (Alternaria”, “20°” for “22/18°”, “C.” for “C. (day/night)”, “(5-6” for “(5-7”

[3] = system: Mycosphaerella arachidis (Cercospora arachidicola); test: Mycosphaerella arachidis (Cercospora arachidicola) / peanut / preventative; conditions: peanut plants cv. Georgia Green, inoculated one day after application, vs untreated control, read-out: disease control
Method: Mycosphaerella arachidis (Cercospora arachidicola)/Peanut/Preventative 3-week old peanut plants cv. Georgia Green are treated with the formulated test compound in a spray chamber. The test plants are inoculated by spraying them with a spore suspension on their lower leaf surface one day after application. After an incubation period of 4 days under a plastic hood at 23° C. and 100% rh, the test plants are kept at 23° C./20° C. (day/night) and 70% rh in a greenhouse. The percentage leaf area covered by disease is assessed when an appropriate level of disease appears on untreated check plants (12-14 days after application).

[4] = system: Phaeosphaeria nodorum (Septoria nodorum); test: Phaeosphaeria nodorum (Septoria nodorum) / wheat / leaf disc preventative (glume blotch); conditions: Parastagonospora nodorum, foliar, wheat leaf segments cv. Kanzler on agar, inoculated 2 days after application, vs untreated control, read-out: disease control
Method: Phaeosphaeria nodorum (Septoria nodorum)/Wheat/Leaf Disc Preventative (Glume Blotch) Wheat leaf segments cv. Kanzler are placed on agar in a multiwell plate (24-well format) and sprayed with the formulated test compound diluted in water. The leaf disks are inoculated with a spore suspension of the fungus 2 days after application. The inoculated test leaf disks are incubated at 20° C. and 75% rh under a light regime of 12 h light/12 h darkness in a climate cabinet and the activity of a compound is assessed as percent disease control compared to untreated when an appropriate level of disease damage appears in untreated check leaf disks (5-7 days after application).

SMILES	pest or weed control at 200 ppm (Plasmopara viticola)	pest or weed control at 200 ppm (Alternaria solani)	pest or weed control at 200 ppm [1]	also measured
COc1cccc(F)c1-c1cccc(-c2ncc3ccccc3n2)n1 [2/70]	≥ 80%	≥ 80%		
Cc1cccc(-c2cccc(-c3ncc4ccccc4n3)n2)c1C [2/9]	≥ 80%	≥ 80%	≥ 80%	
Cc1ccc(-c2ncc3ccccc3n2)nc1-c1ccccc1Br [3/36]	≥ 80%	≥ 80%		pest or weed control at 200 ppm [2]: ≥ 80%
Cc1cc(C)cc(-c2nc(-c3ncc4ccccc4n3)ccc2C)c1 [3/86]	≥ 80%	≥ 80%	≥ 80%	
CSc1ccc(Oc2nc(-c3ncc4ccccc4n3)ccc2C)cc1 [5/4]	≥ 80%	≥ 80%		
CCc1ccccc1-c1nc(-c2ncc3ccccc3n2)ccc1C [3/37]	≥ 80%	≥ 80%		
Cc1ccc(-c2cccc(-c3ncc4ccccc4n3)n2)c(C)c1 [2/94]	≥ 80%	≥ 80%		
COc1ccccc1-c1cccc(-c2ncc3ccccc3n2)n1 [2/15]		≥ 80%		
Cc1ccc(-c2ncc3ccccc3n2)nc1Cc1ccccc1Cl [7/19]	≥ 80%			pest or weed control at 200 ppm [2]: ≥ 80%
Clc1ccccc1Sc1cccc(-c2ncc3ccccc3n2)n1 [9/8]		≥ 80%	≥ 80%	
Cc1ccc(Oc2nc(-c3ncc4ccccc4n3)ccc2C)cc1 [5/17]	≥ 80%			pest or weed control at 200 ppm [3]: ≥ 80%
COc1ccc(-c2cccc(-c3ncc4ccccc4n3)n2)c(OC)c1 [2/33]		≥ 80%		
Fc1ccc(-c2cccc(-c3ncc4ccccc4n3)n2)c(F)c1 [2/28]	≥ 80%	≥ 80%	≥ 80%	
Cc1ccc2nc(-c3ccc(C)c(-c4ccccc4)n3)ncc2c1 [11/4]		≥ 80%	≥ 80%	
Cc1ccccc1-c1cccc(-c2ncc3ccccc3n2)n1 [2/4]		≥ 80%		
Cc1ccc(-c2nc(-c3ncc4ccccc4n3)ccc2C)cc1 [3/69]	≥ 80%		≥ 80%	pest or weed control at 200 ppm [2]: ≥ 80%
Cc1ccc(-c2ncc3ccccc3n2)nc1Cc1ccc(Cl)cc1 [7/18]		≥ 80%	≥ 80%	
COc1ccc(Cl)cc1-c1nc(-c2ncc3ccccc3n2)ccc1C [3/95]	≥ 80%	≥ 80%	≥ 80%	
COc1ccc(-c2cccc(-c3ncc4ccccc4n3)n2)c(C)c1 [2/66]		≥ 80%		pest or weed control at 200 ppm [4]: ≥ 80%
COc1cc(F)ccc1-c1cccc(-c2ncc3ccccc3n2)n1 [2/90]	≥ 80%	≥ 80%	≥ 80%	
Cc1ccc(-c2ncc3ccccc3n2)nc1Oc1cccc2ccccc12 [5/13]		≥ 80%	≥ 80%	
COc1ccccc1Oc1cccc(-c2ncc3ccccc3n2)n1 [4/15]			≥ 80%	
COc1ccc(F)cc1-c1cccc(-c2ncc3ccccc3n2)n1 [2/32]		≥ 80%	≥ 80%	
Cc1ccc(-c2ncc3ccccc3n2)nc1-c1cc(Cl)cc(Cl)c1 [3/73]	≥ 80%		≥ 80%	
Cc1ccc(F)c(-c2cccc(-c3ncc4ccccc4n3)n2)c1 [2/79]	≥ 80%			
COc1ccc(C)cc1-c1cccc(-c2ncc3ccccc3n2)n1 [2/38]		≥ 80%		pest or weed control at 200 ppm [4]: ≥ 80%
Cc1ccc(-c2ncc3ccccc3n2)nc1C [10/3]	≥ 80%			
Cc1ccc(-c2ncc3cc(N)ccc3n2)nc1-c1ccccc1 [11/2]	≥ 80%			

SMILES	pest or weed control at 200 ppm (Plasmopara viticola)	pest or weed control at 200 ppm (Alternaria solani)	pest or weed control at 200 ppm [1]	also measured
Clc1ccccc1Oc1cccc(-c2ncc3ccccc3n2)n1 [4/23]			≥ 80%	
Fc1ccc(Sc2cccc(-c3ncc4ccccc4n3)n2)cc1 [9/4]		≥ 80%	≥ 80%	
Cc1ccc(-c2ncc3ccccc3n2)nc1-c1ccccc1Cl [3/46]	≥ 80%	≥ 80%		pest or weed control at 200 ppm [3]: ≥ 80%
Cc1ccc(-c2nc(-c3ncc4ccccc4n3)ccc2C)cc1C [3/11]	≥ 80%	≥ 80%		
Cc1ccc(-c2ncc3cc(Cl)ccc3n2)nc1-c1ccccc1 [11/5]	≥ 80%		≥ 80%	
COc1cccc(-c2nc(-c3ncc4ccccc4n3)ccc2C)c1 [3/84]	≥ 80%	≥ 80%	≥ 80%	
Cc1cccc(-c2cccc(-c3ncc4ccccc4n3)n2)c1 [2/3]	≥ 80%	≥ 80%	≥ 80%	
Cc1ccc(-c2ncc3ccccc3n2)nc1Sc1ccccc1 [9/6]		≥ 80%	≥ 80%	
COc1ccc(-c2nc(-c3ncc4ccccc4n3)ccc2C)cc1 [3/70]		≥ 80%	≥ 80%	
COc1ccc(OC)c(-c2cccc(-c3ncc4ccccc4n3)n2)c1 [2/46]	≥ 80%	≥ 80%		
CCOc1ccccc1-c1cccc(-c2ncc3ccccc3n2)n1 [2/30]	≥ 80%	≥ 80%		
Brc1ccccc1-c1cccc(-c2ncc3ccccc3n2)n1 [2/26]	≥ 80%			pest or weed control at 200 ppm [3]: ≥ 80%
COc1ccc(F)c(-c2nc(-c3ncc4ccccc4n3)ccc2C)c1 [3/56]	≥ 80%	≥ 80%		pest or weed control at 200 ppm [3]: ≥ 80%
Cc1cc(F)ccc1-c1nc(-c2ncc3ccccc3n2)ccc1C [3/17]		≥ 80%		
c1cc(Oc2ccc3ccccc3c2)nc(-c2ncc3ccccc3n2)c1 [4/10]	≥ 80%	≥ 80%		
Cc1ccccc1Oc1cccc(-c2ncc3ccccc3n2)n1 [4/22, 2-(6-o-tolyloxypyridin-2-yl)-quinazoline]	≥ 80%	≥ 80%	≥ 80%	
CC(C)Oc1nc(-c2cccc(Cc3ccccc3)n2)nc2ccccc12 [12/9]				pest or weed control at 200 ppm [4]: ≥ 80%
COc1ccc(Cc2cccc(-c3ncc4ccccc4n3)n2)c(Cl)c1Cl [6/23]				pest or weed control at 200 ppm [4]: ≥ 80%
COc1ccc(OC)c(Cc2cccc(-c3ncc4ccccc4n3)n2)c1 [6/43]				pest or weed control at 200 ppm [4]: ≥ 80%
Cc1cc(C)c(Cc2cccc(-c3ncc4ccccc4n3)n2)c(C)c1 [6/40]				pest or weed control at 200 ppm [4]: ≥ 80%
C(=C/c1cccc(-c2ncc3ccccc3n2)n1)/c1ccccc1 [10/21]				pest or weed control at 200 ppm [4]: ≥ 80%
Cc1ccc(-c2ncc3ccccc3n2)nc1Sc1ccccc1Cl [9/7]		≥ 80%	≥ 80%	
COc1ccc(C=O)cc1-c1cccc(-c2ncc3ccccc3n2)n1 [2/125]				pest or weed control at 200 ppm [4]: ≥ 80%
COC(=O)c1ccccc1-c1cccc(-c2ncc3ccccc3n2)n1 [2/130]				pest or weed control at 200 ppm [4]: ≥ 80%
COc1cc(F)c(-c2cccc(-c3ncc4ccccc4n3)n2)c(F)c1 [2/131]				pest or weed control at 200 ppm [4]: ≥ 80%
Cc1ccc(-c2ncc3ccccc3n2)nc1/C=C\c1ccccc1 [10/22]				pest or weed control at 200 ppm [4]: ≥ 80%
COc1cccc(Sc2cccc(-c3ncc4ccccc4n3)n2)c1 [9/2]	≥ 80%	≥ 80%	≥ 80%	
